Laboratory results reported in US12624018B1, “Inhibitors of RIPK2 and medical uses thereof” (Odyssey Therapeutics, Inc., priority 2022, dated 2026).

Each compound was assayed against T1, RIPK2 enzyme (Homo sapiens, UniProt O43353) (assay: RIPK2 inhibition (ADP-Glo Kinase Assay)). Conditions: RIPK2 5 nM, ATP 150 μM, MBP substrate, read-out: RIPK2 IC50.
T1 construct: purchased Carna 09-128
Type: biochemical
Outline: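 Swine MBP substrate; compound and 5 nM RIPK2 first mixed for 30 min at room temperature; buffer pH 7.5 HEPES 50 mM with 10 mM MgCl2, 2 mM DTT, 1 mM EGTA, Brij-35, BSA.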

T1 sequence (O43353 1-299 limits assumed): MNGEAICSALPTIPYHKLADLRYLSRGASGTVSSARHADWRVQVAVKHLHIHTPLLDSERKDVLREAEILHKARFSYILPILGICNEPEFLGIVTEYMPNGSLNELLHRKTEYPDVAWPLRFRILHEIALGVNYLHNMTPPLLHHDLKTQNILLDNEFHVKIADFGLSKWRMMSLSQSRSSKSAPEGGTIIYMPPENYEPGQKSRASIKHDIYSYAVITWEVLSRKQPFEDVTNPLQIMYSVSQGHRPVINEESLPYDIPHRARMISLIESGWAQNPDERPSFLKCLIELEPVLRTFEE

Row | IC50 [nM] | SMILES
1 | < 2.5 | Cc1cc(CC(=O)Nc2cnn(C(C)(C)C)c2)ccc1Oc1ccnc2ccc(OCC(=O)O)cc12 [Compound 227, 2-((4-(4-(2-((1-(tert-butyl)-1H-pyrazol-4-yl)amino)-2-oxoethyl)-2-methyl-phenoxy)quinolin-6-yl)oxy)acetic acid]
2 | 9 | COc1ccc2nccc(Oc3cnc(CC(=O)Nc4cnn(C(C)(C)C)c4)c(F)c3)c2c1 [Compound 6, N-(1-(tert-butyl)-1H-pyrazol-4-yl)-2-(3-fluoro-5-((6-methoxyquinolin-4-yl)oxy)pyridin-2-yl)acetamide]
3 | < 2.5 | CC(C)(C)n1cc(NC(=O)Cc2ccc(Oc3ncnc4ccc(OC5CCNCC5)cc34)c(Cl)c2)cn1 [Compound 158, N-(1-(tert-butyl)-1H-pyrazol-4-yl)-2-(3-chloro-4-((6-(piperidin-4-yloxy)quinazolin-4-yl)oxy)phenyl) acetamide]
4 | 10.3 | CN(C)C1CCN(c2ccc3nccc(Oc4cnc(CC(=O)Nc5cnn(C(C)(C)C)c5)c(F)c4)c3c2)C1 (single isomer, unassigned) [Compound 141, N-(1-(tert-butyl)-1H-pyrazol-4-yl)-2-(5-((6-(3-(dimethylamino)pyrrolidin-1-yl)quinolin-4-yl)oxy)-3-fluoropyridin-2-yl)acetamide]
5 | < 2.5 | Cc1cc(CC(=O)Nc2cnn(C(C)(C)C)c2)c(F)cc1Oc1ccnc2ccc(C(=O)NC3CC(C#N)C3)cc12 (single isomer, unassigned) [Compound 396, 4-(4-(2-((1-(tert-butyl)-1H-pyrazol-4-yl)amino)-2-oxoethyl)-5-fluoro-2-methyl-phenoxy)-N-(-3-cyano-cyclobutyl) quinoline-6-carboxamide]
6 | < 2.5 | Cc1cc(CC(=O)Nc2cnn(C(C)(C)C)c2)ccc1Oc1ccnc2ccc(N3C(=O)CCC3C)cc12 (single isomer, unassigned) [Compound 292, N-(1-(tert-butyl)-1H-pyrazol-4-yl)-2-(3-methyl-4-((6-(2-methyl-5-oxopyrrolidin-1-yl)quinolin-4-yl)oxy)phenyl) acetamide]
7 | < 2.5 | CC(C)(C)n1cc(NC(=O)Cc2ccc(Oc3ccnc4ccc(S(N)(=O)=O)cc34)cc2F)cn1 [Compound 46, N-(1-(tert-butyl)-1H-pyrazol-4-yl)-2-(2-fluoro-4-((6-sulfamoylquinolin-4-yl)oxy)phenyl)acetamide]
8 | < 2.5 | Cc1cc(CC(=O)Nc2cnn(C(C)(C)C)c2)ccc1Oc1ccnc2ccc(N3CCCS3(=O)=O)cc12 [Compound 266, N-(1-(tert-butyl)-1H-pyrazol-4-yl)-2-(4-((6-(1,1-dioxidoisothiazolidin-2-yl)quinolin-4-yl)oxy)-3-methylphenyl) acetamide]
9 | < 2.5 | Cc1cc(CC(=O)Nc2cnn(C(C)(C)C)c2)ccc1Oc1ccnc2ccc(S(=O)(=O)CC3CCOC3)cc12 (single isomer, unassigned) [Compound 242, N-(1-(tert-butyl)-1H-pyrazol-4-yl)-2-(3-methyl-4-((6-(((tetrahydrofuran-3-yl)methyl)sulfonyl)quinolin-4-yl)oxy)phenyl)acetamide]
10 | < 2.5 | COc1cc2ncnc(Oc3ccc(CC(=O)Nc4cnn(C(C)(C)C)c4)c(F)c3)c2cc1S(=O)(=O)C(C)(C)C [Compound 2, N-(1-(tert-butyl)-1H-pyrazol-4-yl)-2-(4-((6-(tert-butylsulfonyl)-7-methoxyquinazolin-4-yl)oxy)-2-fluorophenyl)acetamide]
11 | < 2.5 | Cc1cc(CC(=O)Nc2cnn(C(C)(C)C)c2)ccc1Oc1ccnc2ccc(S(=O)(=O)N(C)CCO)cc12 [Compound 262, N-(1-(tert-butyl)-1H-pyrazol-4-yl)-2-(4-((6-(N-(2-hydroxyethyl)-N-methylsulfamoyl)quinolin-4-yl)oxy)-3-methylphenyl)acetamide]
12 | < 2.5 | COc1cc2ncnc(Oc3cc(F)c(CC(=O)Nc4cnn(C(C)(C)C)c4)cc3C)c2cc1C(N)=O [Compound 439, 4-(4-(2-((1-(tert-butyl)-1H-pyrazol-4-yl)amino)-2-oxoethyl)-5-fluoro-2-methylphenoxy)-7-methoxyquinazoline-6-carboxamide]
13 | < 2.5 | Cc1c(Oc2ccnc3ccc(S(N)(=O)=O)cc23)ccc(CC(=O)Nc2cnn(C(C)(C)C)c2)c1F [Compound 267, N-(1-(tert-butyl)-1H-pyrazol-4-yl)-2-(2-fluoro-3-methyl-4-((6-sulfamoylquinolin-4-yl)oxy)phenyl)acetamide]
14 | 11.3 | CCN1CCC(Oc2ccc3nccc(Oc4cnc(CC(=O)Nc5cnn(C(C)(C)C)c5)c(F)c4)c3c2)CC1 [Compound 108, N-(1-(tert-butyl)-1H-pyrazol-4-yl)-2-(5-((6-((1-ethylpiperidin-4-yl)oxy)quinolin-4-yl)oxy)-3-fluoropyridin-2-yl)acetamide]
15 | < 2.5 | CN1CCC(Oc2ccc3nccc(Oc4ccc(CC(=O)Nc5cnn(C(C)(C)C)c5)cc4F)c3c2)CC1 [Compound 162, N-(1-(tert-butyl)-1H-pyrazol-4-yl)-2-(3-fluoro-4-((6-((1-methyl-piperidin-4-yl)oxy)quinolin-4-yl)oxy)phenyl) acetamide]
16 | < 2.5 | Cc1cc(CC(=O)Nc2cnn(C(C)(C)C)c2)ccc1Oc1ccnc2ccc([S+](C)[O-])cc12 (single isomer, unassigned) [Compound 321, N-(1-(tert-butyl)-1H-pyrazol-4-yl)-2-(3-methyl-4-((6-(methylsulfinyl)quinolin-4-yl)oxy)phenyl)acetamide]
17 | < 2.5 | CC(C)(C)n1cc(NC(=O)Cc2ccc(Oc3ccnc4ccc(N5CCOCC5=O)cc34)cc2F)cn1 [Compound 154, N-(1-(tert-butyl)-1H-pyrazol-4-yl)-2-(2-fluoro-4-((6-(3-oxomorpholino)quinolin-4-yl)oxy)phenyl) acetamide]
18 | 7.4 | CC(C)(C)n1cc(NC(=O)Cc2ccc(Oc3ncnc4ccc(C(N)=O)cc34)cc2F)cn1 [Compound 24, 4-(4-(2-((1-(tert-butyl)-1H-pyrazol-4-yl)amino)-2-oxoethyl)-3-fluoro-phenoxy) quinazoline-6-carboxamide]
19 | < 2.5 | Cc1cc(CC(=O)Nc2cnn(C(C)(C)C)c2)ccc1Oc1ccnc2ccc(S(=O)(=O)C3CCNC3)cc12 (single isomer, unassigned) [Compound 202, N-(1-(tert-butyl)-1H-pyrazol-4-yl)-2-(3-methyl-4-((6-(pyrrolidin-3-ylsulfonyl)quinolin-4-yl)oxy)phenyl)acetamde]
20 | 13.7 | COc1ccc2ncnc(Oc3ccc(CC(=O)Nc4cc(C(C)(C)C)ncn4)c(F)c3)c2c1 [Compound 32, N-(6-(tert-butyl)pyrimidin-4-yl)-2-(2-fluoro-4-((6-methoxyquinazolin-4-yl)oxy)phenyl)acetamide]
21 | < 2.5 | CCS(=O)(=O)c1ccc2nccc(Oc3ccc(CC(=O)Nc4cnn(C(C)(C)C)c4)c(F)c3F)c2c1 [Compound 168, N-(1-(tert-butyl)-1H-pyrazol-4-yl)-2-(4-((6-(ethylsulfonyl)quinolin-4-yl)oxy)-2,3-difluorophenyl)acetamide]
22 | < 2.5 | Cc1cc(CC(=O)Nc2cnn(C(C)(C)C)c2)c(F)cc1Oc1ccnc2ccc(C(=O)NCC3COC3)cc12 [Compound 391, 4-(4-(2-((1-(tert-butyl)-1H-pyrazol-4-yl)amino)-2-oxoethyl)-5-fluoro-2-methyl-phenoxy)-N-(oxetan-3-ylmethyl) quinoline-6-carboxamide]
